In patent publication US10758534B2 (Vertex Pharmaceuticals Incorporated, priority 2014, dated 2020):

Target: T1, F508del (Homo sapiens, UniProt P13569, DEL508-508)
T1 construct: expressed in transfected cells
Test: Protocol 2: FRET membrane potential optical assay (VIPR), identification of correction compounds
Type: cell-based
Conditions: not given
Procedure, shortened: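 NIH3T3 mouse fibroblasts stably expressing F508del-CFTR incubated with compound 16 h at 37 °C in serum-free medium, then loaded with CC2-DMPE/DiSBAC2(3) FRET dyes. Channel activated with 10 μM forskolin plus 20 μM genistein in Cl⁻-free (gluconate) bath; depolarisation from Cl⁻ efflux read on VIPR II.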

T1 sequence (P13569 with tags, fused parts or gaps DEL508-508): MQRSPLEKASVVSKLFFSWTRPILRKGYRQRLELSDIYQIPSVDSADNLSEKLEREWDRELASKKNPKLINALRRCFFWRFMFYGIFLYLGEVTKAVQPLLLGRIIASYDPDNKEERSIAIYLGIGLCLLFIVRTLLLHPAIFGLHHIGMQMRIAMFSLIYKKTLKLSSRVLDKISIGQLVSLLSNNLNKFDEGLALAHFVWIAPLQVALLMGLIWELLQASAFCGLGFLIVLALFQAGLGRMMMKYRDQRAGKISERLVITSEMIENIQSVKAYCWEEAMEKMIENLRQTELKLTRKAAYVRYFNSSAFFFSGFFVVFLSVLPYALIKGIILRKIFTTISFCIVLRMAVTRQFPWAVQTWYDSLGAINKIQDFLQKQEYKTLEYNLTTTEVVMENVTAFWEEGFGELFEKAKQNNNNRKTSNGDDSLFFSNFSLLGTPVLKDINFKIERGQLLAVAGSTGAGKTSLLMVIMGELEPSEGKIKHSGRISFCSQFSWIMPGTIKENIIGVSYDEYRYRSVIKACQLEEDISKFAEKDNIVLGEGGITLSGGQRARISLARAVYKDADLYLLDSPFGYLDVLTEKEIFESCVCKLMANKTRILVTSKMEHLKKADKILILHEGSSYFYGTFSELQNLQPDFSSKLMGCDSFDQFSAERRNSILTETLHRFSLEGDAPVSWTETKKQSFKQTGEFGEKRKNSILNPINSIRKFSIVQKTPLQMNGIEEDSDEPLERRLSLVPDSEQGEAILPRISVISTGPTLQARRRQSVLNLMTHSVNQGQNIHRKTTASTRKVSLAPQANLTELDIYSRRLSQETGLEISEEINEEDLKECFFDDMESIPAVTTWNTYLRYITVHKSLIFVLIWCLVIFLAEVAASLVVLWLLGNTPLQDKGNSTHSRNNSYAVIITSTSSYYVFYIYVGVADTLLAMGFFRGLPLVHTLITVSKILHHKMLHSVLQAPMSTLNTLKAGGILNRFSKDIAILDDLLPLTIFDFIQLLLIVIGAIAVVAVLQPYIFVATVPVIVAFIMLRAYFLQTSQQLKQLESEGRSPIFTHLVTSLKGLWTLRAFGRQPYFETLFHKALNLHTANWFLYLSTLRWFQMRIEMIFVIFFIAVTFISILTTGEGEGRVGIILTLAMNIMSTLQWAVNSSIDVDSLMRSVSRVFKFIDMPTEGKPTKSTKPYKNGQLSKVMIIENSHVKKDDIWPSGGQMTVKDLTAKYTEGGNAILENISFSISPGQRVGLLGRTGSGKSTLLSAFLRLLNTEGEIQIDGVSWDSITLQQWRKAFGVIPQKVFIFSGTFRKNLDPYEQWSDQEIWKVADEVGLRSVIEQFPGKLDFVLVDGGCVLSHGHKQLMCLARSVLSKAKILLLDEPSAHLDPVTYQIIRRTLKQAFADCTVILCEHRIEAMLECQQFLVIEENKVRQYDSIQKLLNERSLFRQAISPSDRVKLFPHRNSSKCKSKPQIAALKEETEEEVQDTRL

SMILES | EC30
C[C@@H]1CN(c2nc(C3=CC4CCC3C4)ccc2C(=O)NS(=O)(=O)c2cccc(N)n2)C(C)(C)C1 (some centres unmarked) [Compound 2703] | < 3000 nM

Same assay, conditions: F508del CFTR modulator activity; compounds of Table 1

EC30 | SMILES
+++ (“+++” means <3 uM) | CC[C@@H](C)Oc1ccn(-c2ccc(C(=O)NS(=O)(=O)c3cccnc3N)c(N3C[C@@H](C)CC3(C)C)n2)n1 [Compound 2705]
+++ (“+++” means <3 uM) | [2H]C([2H])([2H])C([2H])(COc1cc(F)cc(-c2ccc(C(=O)NS(=O)(=O)c3cccc(N)n3)c(N3C[C@@H](C)CC3(C)C)n2)c1)C([2H])([2H])[2H] [Compound 2708, N-[(6-amino-2-pyridyl)sulfonyl]-6-[3-fluoro-5-[2,3,3,3-tetradeuterio-2-(trideuteriomethyl)propoxy]phenyl]-2-[(4S)-2,2,4-trimethylpyrrolidin-1-yl]pyridine-3-carboxamide]

Same assay, conditions: F508del CFTR modulator activity; compounds of Table 1; read-out: EC30

SMILES | EC30
COc1ccccc1-c1ccc(C(=O)NS(=O)(=O)N2CC[C@H](N)C2)c(N2C[C@@H](C)CC2(C)C)n1 [Compound 2666, N-[(3S)-3-aminopyrrolidin-1-yl]sulfonyl-6-(2-methoxyphenyl)-2-[(4S)-2,2,4-trimethylpyrrolidin-1-yl]pyridine-3-carboxamide] | 3000 to 10000 nM
COc1ccc(-c2ccc(C(=O)NS(=O)(=O)c3cccnc3N)c(N3C[C@@H](C)CC3(C)C)n2)cc1 [Compound 2667, N-[(2-amino-3-pyridyl)sulfonyl]-6-(4-methoxyphenyl)-2-[(4S)-2,2,4-trimethylpyrrolidin-1-yl]pyridine-3-carboxamide] | < 3000 nM
Cc1cc(C(=O)c2ccccc2)cc(C)c1Oc1nc(-c2cc(F)cc(OCC(C)C)c2)ccc1C(=O)NS(=O)(=O)c1cccc(N)n1 [Compound 2669, N-[(6-amino-2-pyridyl)sulfonyl]-2-(4-benzoyl-2,6-dimethyl-phenoxy)-6-(3-fluoro-5-isobutoxy-phenyl)pyridine-3-carboxamide] | < 3000 nM
Cc1cc(I)cc(C)c1Oc1nc(-c2cc(F)cc(OCC(C)C)c2)ccc1C(=O)NS(=O)(=O)c1cccc(N)n1 [Compound 2671, N-[(6-amino-2-pyridyl)sulfonyl]-6-(3-fluoro-5-isobutoxy-phenyl)-2-(4-iodo-2,6-dimethyl-phenoxy)pyridine-3-carboxamide] | < 3000 nM
CC(C)COc1cc(F)cc(-c2nc(N3C[C@@H](C)CC3(C)C)cnc2C(=O)NS(=O)(=O)c2cccc(N)n2)c1 [Compound 2673, N-[(6-amino-2-pyridyl)sulfonyl]-3-(3-fluoro-5-isobutoxy-phenyl)-5-[(4S)-2,2,4-trimethylpyrrolidin-1-yl]pyrazine-2-carboxamide] | < 3000 nM
CC(C)COc1cc(F)cc(-c2ccc(C(=O)NS(=O)(=O)N[C@@H]3CCCNC3)c(N3C[C@@H](C)CC3(C)C)n2)c1 [Compound 2677, 6-(3-fluoro-5-isobutoxy-phenyl)-N-[[(3R)-3-piperidyl]sulfamoyl]-2-[(4S)-2,2,4-trimethylpyrrolidin-1-yl]pyridine-3-carboxamide] | < 3000 nM
CCOCCOc1ccc(C(=O)NS(=O)(=O)c2cccc(N)n2)c(N2C[C@@H](C)CC2(C)C)n1 [Compound 2678, N-[(6-amino-2-pyridyl)sulfonyl]-6-(2-ethoxyethoxy)-2-[(4S)-2,2,4-trimethylpyrrolidin-1-yl]pyridine-3-carboxamide] | 3000 to 10000 nM
CC(C)COc1cc(F)cc(-c2cc(N3C[C@@H](C)CC3(C)C)c(C(=O)NS(=O)(=O)c3cccc(N)n3)cn2)c1 [Compound 2679, N-[(6-amino-2-pyridyl)sulfonyl]-6-(3-fluoro-5-isobutoxy-phenyl)-4-[(4S)-2,2,4-trimethylpyrrolidin-1-yl]pyridine-3-carboxamide] | 3000 to 10000 nM
CCOCCOCCN(C)c1ncc(-c2ccc(C(=O)NS(=O)(=O)c3cccc(N)n3)c(N3C[C@@H](C)CC3(C)C)n2)cc1C [Compound 2681] | < 3000 nM
COc1ccc(S(=O)(=O)NC(=O)c2ccc(-c3ccc(OC(C)C)nc3)nc2N2C[C@@H](C)CC2(C)C)c(N)n1 [Compound 2688] | < 3000 nM
C[C@@H]1CN(c2nc(-n3ccc(OCC4CC4)n3)ccc2C(=O)NS(=O)(=O)c2cccnc2N)C(C)(C)C1 [Compound 2691] | < 3000 nM
C[C@@H]1CN(c2ncccc2C(=O)NS(=O)(=O)N2CCCC(NCc3ccc(OC(C)(C)C)cc3)C2)C(C)(C)C1 (some centres unmarked) [Compound 2692] | 3000 to 10000 nM
Cc1cn(-c2ccc(C(=O)NS(=O)(=O)c3cccnc3N)c(N3C[C@@H](C)CC3(C)C)n2)nc1OCC(C)(C)C [Compound 2694] | < 3000 nM
C[C@@H]1CN(c2nc(-n3ccc(C4CC4)n3)ccc2C(=O)NS(=O)(=O)c2cccnc2N)C(C)(C)C1 [Compound 2695] | < 3000 nM
CCOCCOCCOc1ccc(C(=O)NS(=O)(=O)c2cccnc2N)c(N2C[C@@H](C)CC2(C)C)n1 [Compound 2700] | < 3000 nM
C[C@@H]1CN(c2ncccc2C(=O)NS(=O)(=O)N2CC[C@@H](NCCCc3ccc(Cl)cc3)C2)C(C)(C)C1 [Compound 2710] | 3000 to 10000 nM
COc1ccc(CNc2cccc(S(=O)(=O)NC(=O)c3ccc(C(C)(C)C)nc3N3CC(C)CC3(C)C)n2)cc1 (centres unmarked) [Compound 2712] | < 3000 nM
COc1ccc(COc2cccc(S(=O)(=O)NC(=O)c3ccc(C(C)(C)C)nc3N3CC(C)CC3(C)C)n2)cc1 (centres unmarked) [Compound 2713] | < 3000 nM
CC(C)CCOc1cccc(S(=O)(=O)NC(=O)c2ccc(C(C)(C)C)nc2N2CC(C)CC2(C)C)n1 (centres unmarked) [Compound 2716] | < 3000 nM
CC1CN(c2ncccc2C(=O)NS(=O)(=O)c2cccc(OCCc3ccccc3)n2)C(C)(C)C1 (centres unmarked) [Compound 2721] | < 3000 nM
CCCN(CC1CC1)c1cccc(S(=O)(=O)NC(=O)c2cccnc2N2CC(C)CC2(C)C)n1 (centres unmarked) [Compound 2723] | < 3000 nM

More lines, now with the values ahead:

EC30 | SMILES
3000 to 10000 nM | Cc1nn(C)c(C)c1-c1ccc(C(=O)NS(=O)(=O)c2cccnc2N)c(N2C[C@@H](C)CC2(C)C)n1 [Compound 2668, N-[(2-amino-3-pyridyl)sulfonyl]-6-(1,3,5-trimethylpyrazol-4-yl)-2-[(4S)-2,2,4-trimethylpyrrolidin-1-yl]pyridine-3-carboxamide]
< 3000 nM | C[C@@H]1CN(c2nc(-n3ccc(OCC(C)(C)C)n3)ccc2C(=O)NS(=O)(=O)c2cccnc2N2CCCCC2)C(C)(C)C1 [Compound 2670, 6-[3-(2,2-dimethylpropoxy)pyrazol-1-yl]-N-[[2-(1-piperidyl)-3-pyridyl]sulfonyl]-2-[(4S)-2,2,4-trimethylpyrrolidin-1-yl]pyridine-3-carboxamide]
< 3000 nM | C[C@@H]1CN(c2nc(-n3ccc(-c4ccccc4)n3)ccc2C(=O)NS(=O)(=O)C2CC2)C(C)(C)C1 [Compound 2674, N-cyclopropylsulfonyl-6-(3-phenylpyrazol-1-yl)-2-[(4S)-2,2,4-trimethylpyrrolidin-1-yl]pyridine-3-carboxamide]
< 3000 nM | C[C@@H]1CC[C@H](C)N1c1nc(-n2ccc(-c3ccccc3)n2)ccc1C(=O)NS(=O)(=O)C1CC1 [Compound 2676, N-cyclopropylsulfonyl-2-[(2S,5R)-2,5-dimethylpyrrolidin-1-yl]-6-(3-phenylpyrazol-1-yl)pyridine-3-carboxamide]
3000 to 10000 nM | C[C@@H]1CN(c2ncccc2C(=O)NS(=O)(=O)N2CC[C@@H](NCc3ccc(F)c(OC(F)(F)F)c3)C2)C(C)(C)C1 [Compound 2680]
< 3000 nM | CCOCCN(C)c1ncc(-c2ccc(C(=O)NS(=O)(=O)c3cccc(N)n3)c(N3C[C@@H](C)CC3(C)C)n2)cc1C [Compound 2682]
< 3000 nM | CCOCCNc1ncc(-c2ccc(C(=O)NS(=O)(=O)c3cccc(N)n3)c(N3C[C@@H](C)CC3(C)C)n2)cc1C [Compound 2683]
< 3000 nM | Cc1cc(-c2ccc(C(=O)NS(=O)(=O)c3cccc(N)n3)c(N3C[C@@H](C)CC3(C)C)n2)cnc1N(C)C(C)C [Compound 2684]
< 3000 nM | Cc1cc(-c2ccc(C(=O)NS(=O)(=O)c3cccc(N)n3)c(N3C[C@@H](C)CC3(C)C)n2)cnc1NC(C)C [Compound 2685]
3000 to 10000 nM | C[C@@H]1CN(c2nc(-c3ccc(O[C@@H](C)CO)nc3)ccc2C(=O)NS(=O)(=O)c2cccnc2N)C(C)(C)C1 [Compound 2687]
3000 to 10000 nM | C[C@@H]1CN(c2ncccc2C(=O)NS(=O)(=O)N2CC[C@@H](NCc3ccc(OC(C)(C)C)cc3)C2)C(C)(C)C1 [Compound 2693]
< 3000 nM | C[C@@H]1CN(c2nc(-n3ccc(-c4ccccc4)n3)ccc2C(=O)NS(=O)(=O)c2cccnc2N)C(C)(C)C1 [Compound 2696]
< 3000 nM | CCOCCOc1ccc(C(=O)NS(=O)(=O)c2cccnc2N)c(N2C[C@@H](C)CC2(C)C)n1 [Compound 2699]
< 3000 nM | Cc1cc(C)cc(-c2ccc(C(=O)NS(=O)(=O)c3cccc(OCCC(C)C)n3)c(N3C[C@@H](C)CC3(C)C)n2)c1 [Compound 2701]
< 3000 nM | CC[C@@H](C)Oc1ccn(-c2ccc(C(=O)NS(=O)(=O)c3cccnc3N)c(N3C[C@@H](C)CC3(C)C)n2)n1 [Compound 2704]
3000 to 10000 nM | C[C@@H]1CN(c2nc(-n3ccc(-c4ccccn4)n3)ccc2C(=O)NS(=O)(=O)C2CC2)C(C)(C)C1 [Compound 2711]
< 3000 nM | CC1CN(c2nc(C(C)(C)C)ccc2C(=O)NS(=O)(=O)c2cccc(OCc3ccc4c(c3)OCO4)n2)C(C)(C)C1 (centres unmarked) [Compound 2714]
< 3000 nM | C/C=C/COc1cccc(S(=O)(=O)NC(=O)c2ccc(C(C)(C)C)nc2N2CC(C)CC2(C)C)n1 (centres unmarked) [Compound 2715]
< 3000 nM | CC1CN(c2ncccc2C(=O)NS(=O)(=O)c2cccc(OCc3c(F)cccc3Cl)n2)C(C)(C)C1 (centres unmarked) [Compound 2717]
< 3000 nM | CC1CN(c2ncccc2C(=O)NS(=O)(=O)c2cccc(Oc3cccc(C(F)(F)F)c3)n2)C(C)(C)C1 (centres unmarked) [Compound 2718]
< 3000 nM | CC1CN(c2ncccc2C(=O)NS(=O)(=O)c2cccc(Oc3cc(F)cc(Cl)c3)n2)C(C)(C)C1 (centres unmarked) [Compound 2719]
< 3000 nM | CC1CN(c2ncccc2C(=O)NS(=O)(=O)c2cccc(Oc3cccc(Cl)c3Cl)n2)C(C)(C)C1 (centres unmarked) [Compound 2720]
< 3000 nM | COc1ccc(OC)c(CNc2cccc(S(=O)(=O)NC(=O)c3cccnc3N3CC(C)CC3(C)C)n2)c1 (centres unmarked) [Compound 2722]
